Assay results: US11987586B1 (TAKEDA PHARMACEUTICAL COMPANY LIMITED, priority 2022, dated 2024)

Biological target: T1, human OX2 receptor (Homo sapiens, UniProt O43614)
T1 construct: expressed in transfected cells
T1 sequence (O43614 1-444): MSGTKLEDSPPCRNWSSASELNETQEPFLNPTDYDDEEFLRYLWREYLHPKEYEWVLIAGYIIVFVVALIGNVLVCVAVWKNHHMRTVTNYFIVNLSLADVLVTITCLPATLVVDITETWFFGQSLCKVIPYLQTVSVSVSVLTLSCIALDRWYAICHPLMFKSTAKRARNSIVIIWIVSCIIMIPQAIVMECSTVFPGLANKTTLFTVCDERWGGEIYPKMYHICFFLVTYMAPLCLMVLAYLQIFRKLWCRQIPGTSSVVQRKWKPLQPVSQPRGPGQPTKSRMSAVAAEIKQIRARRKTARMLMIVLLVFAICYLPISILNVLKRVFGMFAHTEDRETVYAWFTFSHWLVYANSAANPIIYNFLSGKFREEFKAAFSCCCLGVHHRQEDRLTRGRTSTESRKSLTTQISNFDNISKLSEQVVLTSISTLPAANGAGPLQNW
Experiment: Measurement of orexin type 2 receptor agonist activity (calcium fluorescence, Fluo-4, FDSS)
Format: cell-based
Settings: 3 uM test compound; CHO cells expressing human OX2 receptor; DMSO = 0%, 10 nM orexin A (human) = 100%
Method in brief: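 CHO-K1 cells stably expressing human OX2 receptor (residues 1-444) were loaded with Fluo-4 AM plus probenecid. Calcium fluorescence after compound addition was recorded for 1 min 40 s. Activity (%) was scaled between DMSO (0%) and 10 nM orexin A final (100%).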

| Compound | OX2R agonist activity (3 uM, %) |
| --- | --- |
| CS(=O)(=O)N[C@@H]1Cn2c(cn(-c3noc4cc(Cl)c(F)c(-c5c(F)cccc5F)c34)c2=O)C1(F)F [Example 95, N-{(6R)-2-[6-chloro-4-(2,6-difluorophenyl)-5-fluoro-1,2-benzoxazol-3-yl]-7,7-difluoro-3-oxo-2,5,6,7-tetrahydro-3H-pyrrolo[1,2-c]imidazol-6-yl}methanesulfonamide] | 104% |
| CS(=O)(=O)N[C@@H]1CN2C(=O)N(c3noc4cccc(-c5ncc(F)cc5F)c34)CC[C@@H]2C1(F)F [Example 320, N-{(4aR,6R)-2-[4-(3,5-difluoropyridin-2-yl)-1,2-benzoxazol-3-yl]-5,5-difluoro-1-oxooctahydropyrrolo[1,2-c]pyrimidin-6-yl}methanesulfonamide] | 104% |
| CCS(=O)(=O)N[C@@H]1CN2C(=O)N(c3noc4cc(C)nc(-c5c(F)cc(F)cc5F)c34)CC[C@@H]2C1(F)F [Example 220, N-{(4aR,6R)-5,5-difluoro-2-[6-methyl-4-(2,4,6-trifluorophenyl)[1,2]oxazolo[4,5-c]pyridin-3-yl]-1-oxooctahydropyrrolo[1,2-c]pyrimidin-6-yl}ethanesulfonamide] | 112% |
| CCS(=O)(=O)N[C@@H]1Cn2c(cn(-c3noc4cc(C)c(F)c(-c5c(F)cc(F)cc5F)c34)c2=O)C1(F)F [Example 163, N-{(6R)-7,7-difluoro-2-[5-fluoro-6-methyl-4-(2,4,6-trifluorophenyl)-1,2-benzoxazol-3-yl]-3-oxo-2,5,6,7-tetrahydro-3H-pyrrolo[1,2-c]imidazol-6-yl}ethanesulfonamide] | 103% |
| CCS(=O)(=O)N[C@@H]1CN2C(=O)N(c3noc4nc(OC)cc(-c5c(F)cc(F)cc5F)c34)CC[C@@H]2C1(F)F [Example 315, N-{(4aR,6R)-5,5-difluoro-2-[6-methoxy-4-(2,4,6-trifluorophenyl)[1,2]oxazolo[5,4-b]pyridin-3-yl]-1-oxooctahydropyrrolo[1,2-c]pyrimidin-6-yl}ethanesulfonamide] | 105% |
| CS(=O)(=O)N[C@@H]1Cn2c(cn(-c3noc4cc(F)cc(-c5c(F)cccc5F)c34)c2=O)C1(F)F [Example 46, N-{(6R)-2-[4-(2,6-difluorophenyl)-6-fluoro-1,2-benzoxazol-3-yl]-7,7-difluoro-3-oxo-2,5,6,7-tetrahydro-3H-pyrrolo[1,2-c]imidazol-6-yl}methanesulfonamide] | 102% |
| CCS(=O)(=O)N[C@@H]1Cn2c(cn(-c3noc4cc(C)cc(-c5c(F)cccc5F)c34)c2=O)C1(F)F [Example 156, N-{(6R)-2-[4-(2,6-difluorophenyl)-6-methyl-1,2-benzoxazol-3-yl]-7,7-difluoro-3-oxo-2,5,6,7-tetrahydro-3H-pyrrolo[1,2-c]imidazol-6-yl}ethanesulfonamide] | 102% |
| CCS(=O)(=O)N[C@@H]1CN2C(=O)N(c3noc4cc(COC)cc(-c5c(F)cc(F)cc5F)c34)CC[C@@H]2C1(F)F [Example 232, N-{(4aR,6R)-5,5-difluoro-2-[6-(methoxymethyl)-4-(2,4,6-trifluorophenyl)-1,2-benzoxazol-3-yl]-1-oxooctahydropyrrolo[1,2-c]pyrimidin-6-yl}ethanesulfonamide] | 107% |
| CCS(=O)(=O)N[C@@H]1Cn2c(cn(-c3noc4cc(Cl)c(F)c(-c5c(F)cccc5F)c34)c2=O)C1(F)F [Example 78, N-{(6R)-2-[6-chloro-4-(2,6-difluorophenyl)-5-fluoro-1,2-benzoxazol-3-yl]-7,7-difluoro-3-oxo-2,5,6,7-tetrahydro-3H-pyrrolo[1,2-c]imidazol-6-yl}ethanesulfonamide] | 104% |
| CS(=O)(=O)N[C@@H]1CN2C(=O)N(c3noc4cc(C(F)F)cc(-c5c(F)cc(F)cc5F)c34)CC[C@@H]2C1(F)F [Example 200, N-{(4aR,6R)-2-[6-(difluoromethyl)-4-(2,4,6-trifluorophenyl)-1,2-benzoxazol-3-yl]-5,5-difluoro-1-oxooctahydropyrrolo[1,2-c]pyrimidin-6-yl}methanesulfonamide] | 122% |
| CCS(=O)(=O)N[C@@H]1Cn2c(cn(-c3noc4cccc(-c5c(F)cccc5F)c34)c2=O)[C@@H]1F (relative stereo) [Example 129, rel-N-{(6R, 7R)-2-[4-(2,6-difluorophenyl)-1,2-benzoxazol-3-yl]-7-fluoro-3-oxo-2,5,6,7-tetrahydro-3H-pyrrolo[1,2-c]imidazol-6-yl}ethanesulfonamide] | 103% |
| CS(=O)(=O)N[C@H]1C[C@H]2CCN(c3noc4cccc(-c5c(F)cccc5F)c34)C(=O)N2C1 [Example 317, N-{(4aR,6S)-2-[4-(2,6-difluorophenyl)-1,2-benzoxazol-3-yl]-1-oxooctahydropyrrolo[1,2-c]pyrimidin-6-yl}methanesulfonamide] | 110% |
| CS(=O)(=O)N[C@@H]1CN2C(=O)N(c3noc4cccc(-c5ccc(F)cc5F)c34)CC[C@@H]2C1(F)F [Example 290, N-{(4aR,6R)-2-[4-(2,4-difluorophenyl)-1,2-benzoxazol-3-yl]-5,5-difluoro-1-oxooctahydropyrrolo[1,2-c]pyrimidin-6-yl}methanesulfonamide] | 106% |
| O=C1N(c2noc3cccc(-c4c(F)cccc4F)c23)CC[C@H]2N1C[C@@H](NS(=O)(=O)CF)C2(F)F [Example 284, N-{(4aR,6R)-2-[4-(2,6-difluorophenyl)-1,2-benzoxazol-3-yl]-5,5-difluoro-1-oxooctahydropyrrolo[1,2-c]pyrimidin-6-yl}-1-fluoromethanesulfonamide] | 109% |
| O=C1N(c2noc3cc(F)c(F)c(-c4c(F)cccc4F)c23)CC[C@H]2N1C[C@@H](NS(=O)(=O)CF)C2(F)F [Example 313, N-{(4aR,6R)-2-[4-(2,6-difluorophenyl)-5,6-difluoro-1,2-benzoxazol-3-yl]-5,5-difluoro-1-oxooctahydropyrrolo[1,2-c]pyrimidin-6-yl}-1-fluoromethanesulfonamide] | 99% |

More lines, now with the values ahead:

| OX2R agonist activity (3 uM, %) | Compound |
| --- | --- |
| 106% | CCS(=O)(=O)N[C@@H]1Cn2c(cn(-c3noc4cc(Cl)c(F)c(-c5c(F)cc(F)cc5F)c34)c2=O)C1(F)F [Example 94, N-{(6R)-2-[6-chloro-5-fluoro-4-(2,4,6-trifluorophenyl)-1,2-benzoxazol-3-yl]-7,7-difluoro-3-oxo-2,5,6,7-tetrahydro-3H-pyrrolo[1,2-c]imidazol-6-yl}ethanesulfonamide] |
| 106% | CS(=O)(=O)N[C@H]1C[C@H]2CCN(c3noc4cccc(-c5c(F)cc(F)cc5F)c34)C(=O)N2C1 [Example 195] |
| 100% | CCS(=O)(=O)N[C@@H]1Cn2c(cn(-c3noc4cc(COC)c(F)c(-c5c(F)cccc5F)c34)c2=O)C1(F)F [Example 212, N-{(6R)-2-[4-(2,6-difluorophenyl)-5-fluoro-6-(methoxymethyl)-1,2-benzoxazol-3-yl]-7,7-difluoro-3-oxo-2,5,6,7-tetrahydro-3H-pyrrolo[1,2-c]imidazol-6-yl}ethanesulfonamide] |
| 107% | COCc1cc(-c2c(F)cc(F)cc2F)c2c(N3CC[C@H]4N(C[C@@H](NS(=O)(=O)C5CC5)C4(F)F)C3=O)noc2c1 [Example 222, N-{(4aR,6R)-5,5-difluoro-2-[6-(methoxymethyl)-4-(2,4,6-trifluorophenyl)-1,2-benzoxazol-3-yl]-1-oxooctahydropyrrolo[1,2-c]pyrimidin-6-yl}cyclopropanesulfonamide] |
| 103% | CNS(=O)(=O)N[C@@H]1Cn2c(cn(-c3noc4cc(C)nc(-c5c(F)cccc5F)c34)c2=O)C1(F)F [Example 302, N-{(6R)-2-[4-(2,6-difluorophenyl)-6-methyl[1,2]oxazolo[4,5-c]pyridin-3-yl]-7,7-difluoro-3-oxo-2,5,6,7-tetrahydro-3H-pyrrolo[1,2-c]imidazol-6-yl}-N′-methylsulfuric diamide] |
| 111% | O=C1N(c2noc3ccc(F)c(-c4c(F)cc(F)cc4F)c23)CC[C@H]2N1C[C@@H](NS(=O)(=O)C1CC1)C2(F)F [Example 234, N-{(4aR,6R)-5,5-difluoro-2-[5-fluoro-4-(2,4,6-trifluorophenyl)-1,2-benzoxazol-3-yl]-1-oxooctahydropyrrolo[1,2-c]pyrimidin-6-yl}cyclopropanesulfonamide] |
| 114% | Cc1cc2onc(-n3cc4n(c3=O)C[C@@H](NS(=O)(=O)CF)C4(F)F)c2c(-c2c(F)cc(F)cc2F)n1 [Example 201, N-{(6R)-7,7-difluoro-2-[6-methyl-4-(2,4,6-trifluorophenyl)[1,2]oxazolo[4,5-c]pyridin-3-yl]-3-oxo-2,5,6,7-tetrahydro-3H-pyrrolo[1,2-c]imidazol-6-yl}-1-fluoromethanesulfonamide] |
| 104% | COc1cc(-c2c(F)cc(F)cc2F)c2c(N3CC[C@H]4N(C[C@@H](NS(C)(=O)=O)C4(F)F)C3=O)noc2n1 [Example 294, N-{(4aR,6R)-5,5-difluoro-2-[6-methoxy-4-(2,4,6-trifluorophenyl)[1,2]oxazolo[5,4-b]pyridin-3-yl]-1-oxooctahydropyrrolo[1,2-c]pyrimidin-6-yl}methanesulfonamide] |
